Key:
[1] = test system: ID188 patient-derived PDAC 2D line (pre-FOLFIRINOX); test: normalised area under dose-response curve (viability relative to DMSO, 7 doses up to 10 µM) (fraction (AUC)); higher = less sensitive (more viability retained); settings: 72 h; top dose: 10 µM
Description: (§1)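 Patient-derived 2D PDAC cells (ID188 pre-FOLFIRINOX, passage 5+27; ID211 post-FOLFIRINOX, passage 9+11), 1,500-3,000 cells/well in 96-well plates, were treated with a 415-compound Selleck library in seven concentrations (3-fold dilution series, top 10 µM) for 72 h. Viability was read by CellTiter-Glo ATP luminescence, normalised to the DMSO control, and the area under the dose-response curve was computed with the GRmetrics R package; a lower AUC means higher sensitivity.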

[2] = test system: ID211 patient-derived PDAC 2D line (post-FOLFIRINOX); test: as above; settings: 72 h; top dose: 10 µM
Description: as §1

C/C(=N\NC(=S)N1CCC1)c1ccccn1
normalised area under dose-response curve [1]: 0.366 | normalised area under dose-response curve [2]: 0.138

C=CC(=O)N1CCC[C@@H](n2nc(-c3ccc(Oc4ccccc4)cc3)c3c(N)ncnc32)C1
normalised area under dose-response curve [1]: 0.794 | normalised area under dose-response curve [2]: 0.71

CC(=O)N1c2ccc(-c3ccc(C(=O)O)cc3)cc2[C@H](Nc2ccc(Cl)cc2)C[C@@H]1C
normalised area under dose-response curve [1]: 0.815 | normalised area under dose-response curve [2]: 0.732

CC(C)(C#N)c1ccc(N2C(=O)OCc3cnc4ccc(-c5cnc6ccccc6c5)cc4c32)cc1
normalised area under dose-response curve [1]: 0.825 | normalised area under dose-response curve [2]: 0.804

CC(C)(C)c1nc(-c2cccc(NS(=O)(=O)c3c(F)cccc3F)c2F)c(-c2ccnc(N)n2)s1
normalised area under dose-response curve [1]: 0.738 | normalised area under dose-response curve [2]: 0.932

CC(C)N(CCCNC(=O)Nc1ccc(C(C)(C)C)cc1)C[C@H]1O[C@@H](n2ccc3c(N)ncnc32)[C@H](O)[C@@H]1O
normalised area under dose-response curve [1]: 0.952 | normalised area under dose-response curve [2]: 0.899

CC(C)Oc1ccc(C(=O)N[C@H](CNC(=O)CN(C)C)Cc2ccc(-c3cn4cccc([C@H](C)O)c4n3)cc2)cc1Cl
normalised area under dose-response curve [1]: 0.64 | normalised area under dose-response curve [2]: 0.709

CCC(CC)CC1(C(=O)Nc2ccccc2SC(=O)C(C)C)CCCCC1
normalised area under dose-response curve [1]: 0.929 | normalised area under dose-response curve [2]: 0.859

CCc1cc(Nc2nccc(-c3c(-c4ccc(OC)c(C(=O)Nc5c(F)cccc5F)c4)nc4ccccn34)n2)c(OC)cc1N1CCC(N2CCN(S(C)(=O)=O)CC2)CC1
normalised area under dose-response curve [1]: 0.94 | normalised area under dose-response curve [2]: 0.829

CCc1cnn2c(NCc3ccc[n+]([O-])c3)cc(N3CCCC[C@H]3CCO)nc12
normalised area under dose-response curve [1]: 0.426 | normalised area under dose-response curve [2]: 0.161

CCn1c(-c2nonc2N)nc2c(C#CC(C)(C)O)ncc(OC[C@H]3CCCNC3)c21
normalised area under dose-response curve [1]: 0.83 | normalised area under dose-response curve [2]: 0.836

CNC(=O)c1ccc(Nc2ncc(C(F)(F)F)c(NCc3nccnc3N(C)S(C)(=O)=O)n2)cc1
normalised area under dose-response curve [1]: 0.897 | normalised area under dose-response curve [2]: 0.761

CNC(=O)c1nn(C)c2c1C(C)(C)Cc1cnc(Nc3ccc(N4CCN(C)CC4)cc3)nc1-2
normalised area under dose-response curve [1]: 0.776 | normalised area under dose-response curve [2]: 0.783

CNCCN(C)Cc1c[nH]nc1-c1ccc(O[C@H]2C[C@H](OCCC3CCOCC3)C2)cc1
normalised area under dose-response curve [1]: 0.779 | normalised area under dose-response curve [2]: 0.92

CNc1nc(-c2ccc3c(N)n[nH]c3c2)cc(N2C[C@@H](C(=O)NC3CCCCC3)CC[C@H]2C)n1
normalised area under dose-response curve [1]: 0.869 | normalised area under dose-response curve [2]: 0.71

CONC(=O)c1ccccc1Nc1cc(Nc2cc(C)nn2C(C)C)ncc1Cl
normalised area under dose-response curve [1]: 0.812 | normalised area under dose-response curve [2]: 0.844

CO[C@@H](C(=O)N1Cc2[nH]nc(NC(=O)c3ccc(N4CCN(C)CC4)cc3)c2C1)c1ccccc1
normalised area under dose-response curve [1]: 0.766 | normalised area under dose-response curve [2]: 0.611

COc1cc(OC)cc(N(CCNC(C)C)c2ccc3ncc(-c4cnn(C)c4)nc3c2)c1
normalised area under dose-response curve [1]: 0.927 | normalised area under dose-response curve [2]: 0.893

COc1cc2c(cc1OC)CN(CCc1ccc(NC(=O)c3cccc4c(=O)c5cccc(OC)c5[nH]c34)cc1)CC2
normalised area under dose-response curve [1]: 1.02 | normalised area under dose-response curve [2]: 0.682

COc1ccc(-c2ccc3c(N4CCOCC4)nc(N4C[C@@H](C)O[C@@H](C)C4)nc3n2)cc1CO
normalised area under dose-response curve [1]: 0.825 | normalised area under dose-response curve [2]: 0.831

CS(=O)(=O)CCNCc1ccc(-c2ccc3ncnc(Nc4ccc(OCc5cccc(F)c5)c(Cl)c4)c3c2)o1
normalised area under dose-response curve [1]: 0.924 | normalised area under dose-response curve [2]: 0.614

C[C@@H](Oc1cc(-c2cnn(C3CCNCC3)c2)cnc1N)c1c(Cl)ccc(F)c1Cl
normalised area under dose-response curve [1]: 0.772 | normalised area under dose-response curve [2]: 0.799

C[C@@H](Oc1cc(-n2cnc3ccc(CN4CCN(C)CC4)cc32)sc1C(N)=O)c1ccccc1C(F)(F)F
normalised area under dose-response curve [1]: 0.687 | normalised area under dose-response curve [2]: 0.726

C[C@@H]1CN(CC(=O)Nc2ccc3c(c2)Cc2cccc(-c4cc(=O)cc(N5CCOCC5)o4)c2S3)C[C@H](C)O1
normalised area under dose-response curve [1]: 0.936 | normalised area under dose-response curve [2]: 0.842

C[C@H](NC(=O)CCC(F)(F)F)C(=O)N[C@@H]1C(=O)N(CCO)c2ncccc2-c2ccccc21
normalised area under dose-response curve [1]: 0.939 | normalised area under dose-response curve [2]: 0.744

C[C@H](NC(=O)Cc1cc(F)cc(F)c1)C(=O)N[C@@H]1C(=O)N(C)c2ccccc2-c2ccccc21
normalised area under dose-response curve [1]: 0.89 | normalised area under dose-response curve [2]: 0.782

Cc1cc(C)c(CNC(=O)c2cc(-c3ccc(CN4CCOCC4)cc3)cc3c2cnn3C2CCCC2)c(=O)[nH]1
normalised area under dose-response curve [1]: 0.896 | normalised area under dose-response curve [2]: 0.812

Cc1ccc(C(=O)N(CCCN)[C@@H](c2nc3cc(Cl)ccc3c(=O)n2Cc2ccccc2)C(C)C)cc1
normalised area under dose-response curve [1]: 0.5 | normalised area under dose-response curve [2]: 0.697

Cc1ccc2nc(CN(CCN(Cc3nc4ccc(C)cc4[nH]3)Cc3nc4ccc(C)cc4[nH]3)Cc3nc4ccc(C)cc4[nH]3)[nH]c2c1
normalised area under dose-response curve [1]: 1.03 | normalised area under dose-response curve [2]: 0.676

Cc1cccc(-c2nn3c(c2-c2ccnc4ccc(C(N)=O)cc24)CCC3)n1
normalised area under dose-response curve [1]: 0.968 | normalised area under dose-response curve [2]: 0.965

Cc1cccc(CC(=O)N2CCc3c2ccc(-c2cn(C)c4ncnc(N)c24)c3F)n1
normalised area under dose-response curve [1]: 0.87 | normalised area under dose-response curve [2]: 0.959

Cc1ncc(Cl)cc1NCc1ccc(C(=O)N[C@@H](CC2CCCC2)C(=O)NC2CC2)s1
normalised area under dose-response curve [1]: 0.923 | normalised area under dose-response curve [2]: 0.865

Cn1cc(-c2ccc3c(c2)CCN3C(=O)Cc2cccc(C(F)(F)F)c2)c2c(N)ncnc21
normalised area under dose-response curve [1]: 0.915 | normalised area under dose-response curve [2]: 0.852

Cn1cc(-c2cnn3c(N)c(Br)c([C@@H]4CCCNC4)nc23)cn1
normalised area under dose-response curve [1]: 0.873 | normalised area under dose-response curve [2]: 0.9

Cn1cc(/C=C2\C(=O)Nc3cccnc32)c2ccccc21
normalised area under dose-response curve [1]: 0.94 | normalised area under dose-response curve [2]: 0.914

Cn1cc(C2=C(c3cn(C4CCN(Cc5ccccn5)CC4)c4ccccc34)C(=O)NC2=O)c2ccccc21
normalised area under dose-response curve [1]: 0.917 | normalised area under dose-response curve [2]: 0.933

NS(=O)(=O)NCCNc1nonc1/C(=N/O)Nc1ccc(F)c(Br)c1
normalised area under dose-response curve [1]: 0.924 | normalised area under dose-response curve [2]: 0.909

Nc1[nH]nc2nnc(-c3c(-c4ccccc4)nn4ccccc34)cc12
normalised area under dose-response curve [1]: 0.847 | normalised area under dose-response curve [2]: 0.849

O=C(O)c1ccc(-c2c[nH]c3ncc(-c4ccccc4)cc23)cc1C1CCCC1
normalised area under dose-response curve [1]: 0.924 | normalised area under dose-response curve [2]: 0.913

O=C1NC(=O)C(c2cnc3ccccn23)=C1c1cn2c3c(cc(F)cc13)CN(C(=O)N1CCCCC1)CC2
normalised area under dose-response curve [1]: 1.04 | normalised area under dose-response curve [2]: 0.259

O=c1cc(-c2cccc3c2Sc2ccccc2S3)oc(N2CCOCC2)c1
normalised area under dose-response curve [1]: 0.945 | normalised area under dose-response curve [2]: 0.834

c1ccc(-c2nn3c(c2-c2ccnc4cc(OCCN5CCOCC5)ccc24)CCC3)nc1
normalised area under dose-response curve [1]: 0.974 | normalised area under dose-response curve [2]: 0.861

c1ccc2c(CCNc3ccc(Nc4ccncc4)cc3)c[nH]c2c1
normalised area under dose-response curve [1]: 0.88 | normalised area under dose-response curve [2]: 0.796

— the supplement of paper PMC8988213
